Measurements from patent publication US6316423A, “Method of treating ischemic, hypoxic and anoxic brain damage” (priority 1999, dated 2001).

Tests used:
Format in all cases: in vivo, gerbil
[1] = tested on: cortex, hippocampal CA1 sector, and striatum; test: Nissl histology of neuronal loss, preischemic ADAC; conditions: two weeks after ischemia
Protocol: The gerbils of Example 3 were subjected to examination procedures subsequent to the water maze tests described in Example 3. One day after the last postischemic water maze trial, all animals were heavily anesthetized with Nembutal and perfused through the aorta with buffered (pH 7.4) formaldehyde. Frozen sections of the brains were made as described previously (Lin et al., supra). The sections were stained using the method of Nissl, and the extent of the neuronal loss was determined in the cortex, hippocampal CA1 sector, and striatum following the published protocol of von Lubitz et al. (von Lubitz, 1992, supra; von Lubitz, 1994, supra).

[2] = tested on: gerbils subjected to 10 minutes of ischemia; test: Open field locomotor activity 7 days after ischemia; conditions: preischemic ADAC, 10 minute period, control 235±3 cm, P<0.001
Protocol: (§1) Prior to subjecting the gerbils to 10 minutes of ischemia, the gerbils were randomly divided into the control and the drug testing groups. […] During post-ischemic recovery, animals were monitored each day for signs of functional damage (e.g., pareses) that might affect their subsequent water maze performance. Postischemic mortality was also monitored every day.
Since locomotor hyperactivation may result in a spurious improvement of performance in the water maze (von Lubitz et al., 1993, supra), open field activity of all gerbils was assessed 7 days after the occlusion (i.e., one day prior to the water maze experiments). During locomotor testing, horizontal displacement of each gerbil was monitored in 2 minute epochs for 10 minutes using a Digiscan activity monitor (available from Omnitech Electronics, Colombus, Ohio).

[3] = tested on: neurons of hippocampal CA1 region; test: Neuronal survival 14 days after 10 minute ischemia, postischemic ADAC; conditions: control 25±3%
Protocol: At the end of the survival monitoring period (14 days), control and drug treated survivors were heavily anesthetized with Nembutal (60 mg/kg, intraperitoneally), and perfused with phosphate buffered (pH 7.4) 3.5% formaldehyde as described previously (Lin et al., Neurosci., 2, 289 (1990). The sections were stained with the method of Nissl, and the extent of the neuronal loss in the hippocampal region was investigated according to a standard procedure as disclosed in the art (von Lubitz et al., (1992) supra; 1994)supra.

brain ischemia = test: Comparison of effective neuroprotective concentrations with other A1 agonists; conditions: vs other A1 adenosine receptor agonists examined thus far
[4] = Cardiovascular effects and body temperature of ADAC in nonischemic (normoxic) gerbils; conditions: for Blood pressure / Cardiac rate: 100 μg/kg ADAC, ± SEM
From the text: Blood pressure was monitored using a Harvard Apparatus (South Natick, Mass.) rat tail blood pressure monitor (von Lubitz et al., 1994 supra), while a Silogic EC-60 cardiac and respiratory monitor (Stewartstown, Pa.) was used to measure cardiac rate. EEG clip electrodes were attached to the unshaven loose skin of the armpits and to both thighs saturated with EEG gel.

[5] = tested on: gerbils subjected to 10 minutes of ischemia; test: Postischemic Morris water maze test (spatial memory)
Protocol: The Morris water maze (Morris et al., supra) is now considered the most direct means of assessing post-ischemic memory and learning of spatially oriented tasks (Corbett et al., Neuroreport, 3, 204 (1992)). This test is well known in the art and the specific parameters of this test as used herein are defined below. Female gerbils (Tumblebrook Farms, Mass.) weighing 70 g were used in the study. Prior to inclusion in the experiments, animals were tested for susceptibility to spontaneous seizures using the method described by Lee et al., Neuropharmacol., 5, 517 (1984). Seizure-prone gerbils were rejected.
The details of the water maze are known in the art (von Lubitz et al., 1993 supra). Briefly, the system consists of a tank (1 m diameter) which is filled with opaque water to a depth of 30 cm. The tank contains a colorless target platform (15 cm diameter) submerged to a depth of 1.5 cm and placed in the center of the north-west quadrant. […]
as §1

[6] = tested on: gerbils exposed to 10 minutes of brain ischemia; test: Chronic ADAC treatment followed by 10 minutes of ischemia; conditions: 0.025, 0.050 or 0.075 mg for 60 days, one day rest
Protocol: The gerbils were then subjected to 10 minutes of brain ischemia and allowed to recover.

[7] = tested on: gerbils exposed to 10 minutes of brain ischemia; test: Dose-response of preischemic ADAC on survival after 10 minutes of ischemia; conditions: 15 min preischemia, control 40%
From the text: This higher selectivity results in lower quantities of drug administration required for maximum neuroprotection. Lower administered quantities in turn, result in attenuation or elimination of side-effects.

NCCNC(=O)Cc1ccc(NC(=O)Cc2ccc(Nc3ncnc4c3ncn4[C@@H]3O[C@H](CO)[C@@H](O)[C@H]3O)cc2)cc1 [ADAC]
hippocampal CA1 neurons surviving ([1]; control 23%): 81%
neuronal loss in cortex and striatum ([1]; control 83% (cortex) and 25% (striatum) surviving): complete elimination of neuronal loss
open field activity (horizontal displacement) [2]: 135±6 cm
CA1 neuronal preservation ([3]; ADAC at 0.5, 2 or 3 hours postischemia): ~ 75%
CA1 neurons surviving ([3]; ADAC at 15 minutes, 6 or 12 hours postischemia): approximately 60%
CA1 neurons still intact ([3]; ADAC at 1 hour postischemia): 88±4%
level of efficacy versus other A1 adenosine receptor agonists (brain ischemia): about an order of magnitude better
Blood pressure ([4]; 5 min post injection): 83 ± 1 mm Hg
Cardiac rate ([4]; 5 min post injection): 385 ± 6 beats/min
Blood pressure ([4]; 15 min post injection): 81 ± 1 mm Hg
Cardiac rate ([4]; 15 min post injection): 382 ± 7 beats/min
Blood pressure ([4]; 30 min post injection): 82 ± 2 mm Hg
Cardiac rate ([4]; 30 min post injection): 383 ± 8 beats/min
Blood pressure ([4]; 60 min post injection): 80 ± 2 mm Hg
Cardiac rate ([4]; 60 min post injection): 383 ± 6 beats/min
changes of body temperature ([4]; 100 μg/kg, nonischemic gerbils): did not cause any significant changes
changes of cardiac rate ([4]; 100 μg/kg, nonischemic gerbils): did not cause any significant changes
changes of mean arterial blood pressure ([4]; 100 μg/kg, nonischemic gerbils): did not cause any significant changes
bradycardia, hypotension, or decreased cerebral (cortical) blood flow ([4]; 0.1 mg/kg intraperitoneal, normoxic gerbils, within 120 minutes): not accompanied by a statistically significant bradycardia, hypotension, or decreased cerebral (cortical) blood flow
cardiovascular effects at higher concentrations ([4]; 0.3 mg/kg and beyond, within 30 minutes of administration): manifests cardiovascular effects within 30 minutes of administration of 0.3 mg/kg and beyond
preference for target quadrant in postischemic probe trial ([5]; FIG. 2, controls lost all preference): retained a high preference for the target quadrant
recovery of postischemic water maze performance ([5]; preischemic ADAC, FIG. 1): regained water maze performance levels that mirrored the plateau level obtained in preischemic training almost immediately (trial 2, day 9)
survival rate after chronic treatment followed by ischemia ([6]; FIG. 7A): attenuated the effects of brain ischemia
neuronal loss after chronic treatment followed by ischemia ([6]; FIG. 7B): attenuated the effects of brain ischemia
survival rate ([7]; 0.025 mg/kg): 30%
survival rate ([7]; 0.050 mg/kg): 60%
survival rate (plateau) ([7]; 75, 100, or 200 mg/kg (so in the source)): 80%
